According to patent US20070003641A1, “Synergistic pharmaceutical compositions useful in prevention and treatment of beta-amyloid protein-induced disease” (priority 2005, published 2007):

Legend:
[1] = tested on: PC12, IMR32, and HUVEC cells; assay: Cell protection from βA peptide insult, stated in words; type: cell-based
Protocol: (§1) The neuronal cell protection by the extract or combination of extracts was determined by observing the differences in the cell viability of βA (both 25-35 and 1-42) treated cells, βA (both 25-35 and 1-42) treated cells further including an extract or a combination of extracts according to the invention, and a DMSO control.
The degree of βA insult was measured by 3-[4,5-dimethylthiazol-2-yl]-2,5-diphenyltetrazolium bromide (MTT) reduction assay. See Kim et al., Neurosci Lett 303, 57 (2001), Park et al., J Nat Prod 65, 1227 (2002) and Kim et al., Plant Medica 68, 375 (2002). The detection of cell growth or cell death can be determined by observing the conversion of MTT to the colored product, MTT formazan, the concentration of which can be measured colorimetrically at 550 nm. […]
The extract or combination of extracts' ability to protect PC12 cells from βA insult was investigated according to the published procedure. […] The extract or combination of extracts' ability to protect PC12 cells from βA(1-42) insult was determined by measuring the cell's potential to reduce MTT with respect to the treatment of cells with 1% DMSO only and the treatment of cells with 1.0 μg/mL βA(1-42) and 1% DMSO without the presence of test extract or a combination of extracts. […] Optical density of the resulting solutions was colorimetrically determined at 550 nm using a microplate reader. […]

HUVEC cells = assay: MTT reduction assay: protection of HUVEC cells from βA insult; type: cell-based, human
Protocol: as §1
(§2) The degree of βA insult was measured by 3-[4,5-dimethylthiazol-2-yl]-2,5-diphenyltetrazolium bromide (MTT) reduction assay. See Kim et al., Neurosci Lett 303, 57 (2001), Park et al., J Nat Prod 65, 1227 (2002) and Kim et al., Plant Medica 68, 375 (2002). The detection of cell growth or cell death can be determined by observing the conversion of MTT to the colored product, MTT formazan, the concentration of which can be measured colorimetrically at 550 nm. See Kim et al., Neurosci Lett 303, 57 (2001).
(§3) The extract or combination of extracts' ability to protect PC12 cells from βA insult was investigated according to the published procedure. See Kim et al., Neurosci Lett 303, 57 (2001), Park et al., J Nat Prod 65, 1227 (2002) and Kim et al., Plant Medica 68, 375 (2002). For the bioassay, 90 μL of exponentially growing cells (2,000 cells per mL) were plated in 96-well tissue culture plates. Cells were incubated with βA(1-42) (2.0 μg/mL, prepared from a stock solution (1.0 mg/mL in dimethyl sulfoxide (DMSO))) and test compound at various concentrations (50, 10, 2, 0.4, and 0.08 μg/mL) for 24 hours. The final DMSO concentration was less than 1%. The extract or combination of extracts' ability to protect PC12 cells from βA(1-42) insult was determined by measuring the cell's potential to reduce MTT with respect to the treatment of cells with 1% DMSO only and the treatment of cells with […] βA(1-42) and 1% DMSO without the presence of test extract or a combination of extracts. After the incubation of cells in MTT solution (25 μL per well, 1 mg/mL stock solution) for 1 h at 37° C., 100 μL Lysing buffer (50% aqueous dimethylformamide (DMF) and 20% sodium dodecyl sulfate (SDS) at pH 4.7) was added and incubated overnight at 37° C. Optical density of the resulting solutions was colorimetrically determined at 550 nm using a microplate reader. Dose-response curves were prepared and the results were expressed as ED50 values in μg/mL (Table 1). Curcumin and (±)-α-tocopherol (vitamin-E) were used as reference compounds. Bioassay using βA(25-35) was similarly performed. The extract or combination of extracts' ability to protect IMR32 and HUVEC cells from βA insult was also similarly investigated.
(§4) PC12 cells were obtained from the American Type Culture Collection (Rockville, Md.). Cells were routinely cultured on a polystyrene-coated Corning tissue culture plate (Corning, New York, N.Y.). Culture media and supplements were obtained from Life Technologies (Grand Island, N.Y.). Cells were maintained in high glucose Dulbecco's modified Eagle medium, 10% horse serum, 5% fetal calf serum, and 1% penicillin/streptomycin. See Kim et al., Neurosci Lett 303, 57 (2001), Park et al., J Nat Prod 65, 1227 (2002) and Kim et al., Plant Medica 68, 375 (2002). IMR32 human neuroblastoma cells were obtained from the American Type Culture Collection (ATCC). Normal umbilical human vein endothelial (HUVEC) cells were obtained from Clonetics (San Diego, Calif.). Cells were routinely cultured on a polystyrene-coated Corning tissue culture plate (Corning, New York, N.Y.). IMR32 cells were grown in high glucose Dulbecco's Modified Eagle Medium (DMEM), 10% horse serum, 5% fetal calf serum, and 1% penicillin/streptomycin. HUVEC cells were grown in EGM-2 Bullet Kit (Clonetics, San Diego, Calif.). For the bioassay using βA(25-35), 100 μl of exponentially growing IMR32 and HUVEC cells (2,000 and 500 cells per ml, respectively) were plated in 96-well tissue culture plates. A different number of cells per ml was used for the experiment because of the cell size difference of HUVEC cells with respect to IMR32 cells and PC12 cells. […]

PC12 cells = assay: MTT reduction assay: protection of PC12 cells from βA insult; type: cell-based; conditions: 24 hours
Protocol: as §1, §2, §3, §4

[2] = tested on: IMR32 human neuroblastoma cells; assay: MTT reduction assay: protection of IMR32 cells from βA insult; type: cell-based
Protocol: as §1, §2, §3, §4

Compound | protection of cells from βA peptide insult (in words) [1] | ED50, cell protection against βA insult (HUVEC cells; βA(1-42)) | ED50, cell protection against βA insult (HUVEC cells; βA(25-35)) | ED50, cell protection against βA insult (PC12 cells; βA(1-42)) | ED50, cell protection against βA insult (PC12 cells; βA(25-35)) | ED50, cell protection against βA insult ([2]; βA(1-42)) | ED50, cell protection against βA insult ([2]; βA(25-35))
CCCCCCCCCCC(=O)CCc1ccc(O)c(OC)c1 [(45), [9]-dihydroshogaol] | effectively protected cells from βA peptide insult |  |  |  |  |  | 
CCCCCCCCC=CC(=O)CCc1ccc(O)cc1 [(50), [9]-demothoxyshogaol] | effectively protected cells from βA peptide insult |  |  |  |  |  | 
CC(C)c1cc2c(c(O)c1O)[C@@]13CCCC(C)(C)[C@@H]1[C@@H](O)C2OC3=O [RS-7] |  | 3.5 µg/mL | 3.2 µg/mL | 3.1 µg/mL | 2.3 µg/mL | 3.4 µg/mL | 2.9 µg/mL
CC(C)c1cc(C=O)c2c(c1O)OC(=O)[C@@]21CCCC(C)(C)[C@@H]1C=O [RS-8] |  | 16.7 µg/mL | 15.5 µg/mL | 13.3 µg/mL | 11.6 µg/mL | 14.6 µg/mL | 15.2 µg/mL
CCCCC/C=C/C(=O)CCc1ccc(O)c(OC)c1 [6-shogaol [6S], 6-shogaol] |  | 5.5 µg/mL | 5.9 µg/mL | 5.7 µg/mL | 5.4 µg/mL | 6.1 µg/mL | 6.3 µg/mL
CC(C)c1cc2c(c(O)c1O)[C@@]13CCCC(C)(C)[C@@H]1[C@H](OC3=O)[C@H]2O [RS-9] |  | 34.2 µg/mL | 31.0 µg/mL | 35.4 µg/mL | 33.2 µg/mL | 35.5 µg/mL | 38.3 µg/mL
(±)-α-tocopherol [reference compound] |  | >50 µg/mL | >50 µg/mL | >50 µg/mL | >50 µg/mL | >50 µg/mL | >50 µg/mL
COc1cc(C=CC(=O)CC(=O)C=Cc2ccc(O)c(OC)c2)ccc1O [curcumin, 1,7-bis(4-hydroxy-3-methoxyphenyl)-1,6-heptadiene-3,5-dione, reference compound] |  | 6.8 µg/mL | 6.2 µg/mL | 7.1 µg/mL | 6.7 µg/mL | 6.3 µg/mL | 7.4 µg/mL
